Values of other authors in patent US20150335557A1, “ANTI-PLAQUE ORAL COMPOSITIONS” (priority 2012, published 2015).

Details: @ 79° F.

water solubility: 34 % w/v
SMILES: CS(C)(=O)=O [MSM, methylsulfonylmethane]
